According to US7098195B2, “Fluorinated glucosamine analogs useful for modulating post-translational glycosylations on cells” (Health Research, Inc., priority 2001, dated 2006):

Assays:
[1] = tested on: HECA-452 epitopes; assay: Flow cytometric analysis of HECA-452 epitopes on human T-lymphocytes; format: cell-based; conditions: for HECA-452 Mean Channel Fluorescence: CLA+ T-cells
Description: Only positive cells, which were those cells with fluorescence above background autofluorescence and fluorochrome-conjugated secondary Ab staining, were analyzed.
For analysis of CLA expression on T-cells treated with glycoconjugate modifiers, CLA^+ T-cells were first pretreated with neuraminidase (0.1 U/ml at 37° C. for 1 h) to eliminate functional CLA and cleave all HECA-452 reactive epitopes from the cell surface (35–38). Since we wanted to investigate whether these compounds directly affected CLA expression and function, neuraminidase pretreatment followed by incubations with glycosylation modifiers allowed for examination of de novo synthesized CLA/HECA-452 epitopes re-expressed on the cell surface. After neuraminidase digestion, cells were then incubated with tunicamycin (0.02 mM) (an inhibitor of GlcNAc phosphotransferase, the initial step of N-glycosylation), swainsonine (0.23 mM) (an inhibitor of α-mannosidase II and complex-type N-glycosylation), 4-F-GlcNAc (0.05 mM) (putative inhibitor of poly-N-acetyllactosamine biosynthesis), BAG (an inhibitor of O-glycan biosynthesis) (<2 mM) or GlcNAc (5 mM) (negative control, naturally-occurring metabolic counterpart of 4-F-GlcNAc)for 30 h in the presence of human recombinant IL-2. […] Concentrations for BAG were selected based on maximal O-glycosylation inhibitory effects at non-growth inhibitory concentrations as previously reported (39). To determine a suitable concentration of 4-F-GlcNAc for examining glycoconjugate-modifying effects without influencing cell growth or protein synthesis, we performed preliminary growth inhibitory experiments of cells incubated with 4-F-GlcNAc for 2 cell doublings (˜36 h) at 37° C. (cell viability assessed by Trypan-blue exclusion).
Flow cytometric analysis was performed on human leukocytes utilizing both direct and indirect immunofluorescence staining approaches. All cells utilized for these experiments were washed twice with cold PBS/2%FBS and suspended at 10^7/ml PBS/1% FBS. Primary antibodies, anti-CLA (HECA-452), -CD4, -CD8, CD43 (L60) and PSGL-1 (PL-2) along with the appropriate isotype-matched control antibodies were incubated with the cells for 30 min on ice. Following two washes with PBS/2%FBS, cells were resuspended in PBS/1%FBS and fluorochrome-conjugated secondary antibodies (2 μl) and incubated for 30 min on ice.

[2] = tested on: human ovarian, A121, tumor cells; conditions: cited from earlier work
[3] = tested on: human colon HT-29 cancer cells; conditions: HT-29 cells; cited from earlier work
[4] = tested on: C57BL/6 mice; assay: Langerhans cell migration to draining lymph nodes and FITC presentation in mice; format: in vivo, mouse; conditions: 250 mg/kg/day, cumulative dose of 750 mg/kg, 4-day experiment
Description: Six to eight-week old C57BL/6 mice from Charles River Laboratories (Wilmington, Mass.) were housed in pathogen-free conditions in the animal facility at the Harvard Institutes of Medicine and utilized in these experiments. For analysis of LC migration to draining lymph nodes and antigenic presentation by dendritic cells (DC), right ears of mice were painted with 25 μl of 0.5% FITC, a contact sensitizing agent dissolved in acetone-dibutyl phthalate vehicle (1:1 v/v), while left ears were painted with 25 μl of vehicle alone. After 30 h, regional auricular/cervical lymph nodes draining right or left ears, respectively, were isolated and single cell suspensions were prepared. To enrich for DC, cell suspensions were subjected to Optiprep™ (Accurate Chemicals, Westbury, N.Y.) discontinuous gradient centrifugation. […] Positive cells stained with PE-anti-CD11c were gated and analyzed for FITC expression. […]
Following a 30 h incubation, CD11c-positive LC isolated from the draining lymph nodes were analyzed for FITC expression by flow cytometry.

[5] = previous studies; cited from earlier work
[6] = tested on: panel of human tumor cell lines as well as normal endothelial cells; assay: Growth inhibition (IC50) of human tumor cell lines and normal endothelial cells; format: cell-based; conditions: newly synthesized compounds compared with compounds synthesized by the original method
Description: Before conducting experiments with newly synthesized 3- and 4-F-GlcNAc the effects of 3- and 4-F-GlcNAc on the growth of a panel of human tumor cell lines as well as normal endothelial cells (i.e. IC50 values) were first determined and compared with the original growth inhibitory action (9 Bernacki, R. J. et al. (1977) J. Supra. Stru., 7:235–250; 10 Sharma, M. and W. Korytnyk (1980) Carbohyd. Res., 79:39–51;11 Sharma, M. et al. (1990). Carbohyd. Res., 198:205–22).

[7] = tested on: CD44 on human hematopoietic KG1a cells; assay: Flow cytometric analysis of CD44 on KG1a cells; format: cell-based
Description: In a similar set of experiments, we analyzed the effects of 4-F-GlcNAc on selectin ligand expression and function on the human hematopoietic cell line KGla. KGla cells express a distinct HECA-452-reactive CD44 glycoform that functions as both an E- and L-selectin ligand (Dimitroff, C. J. et al. (2001) J. Cell Biol., 53: 1277–1286; Dimitroff, C. J. et al. (2000) Proc. Nat. Acad. Sci., 97(25):13841–46; Sackstein, R. and Dimitroff, C. J. (2000) Blood, 96: 2765–74.), otherwise known as HCELL, respectively. This specialized glycoform represents a major E-selectin and the primary L-selectin ligand on normal CD34+ HPCs and on leukemic cells, and, therefore, is also implicated in the BM homing aspects and growth-related activities of HPCs in vivo, respectively (Id.). We first performed flow cytometric analysis of HECA-452 antigen and CD44 on 4-F-GlcNAc-treated KGla cells. […] Only positive cells, which were those cells with fluorescence above background autofluorescence and fluorochrome-conjugated secondary Ab staining, were analyzed.
Flow cytometric analysis was performed on human leukocytes utilizing both direct and indirect immunofluorescence staining approaches. All cells utilized for these experiments were washed twice with cold PBS/2%FBS and suspended at 10^7/ml PBS/1% FBS. Primary antibodies, anti-CLA (HECA-452), -CD4, -CD8, CD43 (L60) and PSGL-1 (PL-2) along with the appropriate isotype-matched control antibodies were incubated with the cells for 30 min on ice. Following two washes with PBS/2%FBS, cells were resuspended in PBS/1%FBS and fluorochrome-conjugated secondary antibodies (2 μl) and incubated for 30 min on ice. Cells were washed twice with PBS/2%FBS, resuspended in PBS and flow cytometry was performed on a FACScan apparatus equipped with an argon laser tuned at 488 nm (Becton Dickinson).

CC(=O)N[C@H]1C(OC(C)=O)O[C@H](COC(C)=O)[C@@H](F)[C@@H]1OC(C)=O (stereo partly drawn) [4-F-GlcNAc, 2-acetamido-2-deoxy-1,3,6-tri-O-acetyl-4-deoxy-4-fluoro-D-glucopyranose]
HECA-452 epitopes on CLA+ T-cells ([1]; 0.05, 0.1 or 0.5 mM for 30 hr after neuraminidase): marked, concentration-dependent decrease | HECA-452 Mean Channel Fluorescence ([1]; neuraminidase then recovery in 0.05 mM): 228 | HECA-452 Mean Channel Fluorescence ([1]; neuraminidase then recovery in 0.1 mM): 217 | HECA-452 Mean Channel Fluorescence ([1]; neuraminidase then recovery in 0.5 mM): 62 | incorporation of radiolabeled sugar precursors [2]: conspicuous reductions | radiolabeled sugar incorporation into cell surface glycoproteins [3]: inhibition of radiolabeled glucosamine, fucose and galactose incorporation | weight gain [4]: did not show similar weight gain | dose limiting toxicity [5]: ~250 mg/kg×6 days | IC50 values, growth of tumor cell lines and normal endothelial cells [6]: identical to those that were previously described | CD44 % Positive Cell Staining ([7]; KG1a neuraminidase then recovery in 0.05 mM): 100% | CD44 % Positive Cell Staining ([7]; KG1a neuraminidase then recovery in 0.1 mM): 100% | CD44 % Positive Cell Staining ([7]; KG1a neuraminidase then recovery in 0.5 mM): 100% | expression of CD44 on KG1a cells ([7]; even at 0.5 mM): no reduction
